{"source": "patent US11298343B2", "about": "“Method for treating thalassemia” (ST. JUDE CHILDREN'S RESEARCH HOSPITAL, priority 2017, dated 2022)", "key": {"[1]": {"test_system": "free α-globin in β-thalassemic erythroblasts", "test": "Free α-globin by HPLC in erythroblasts derived from β-thalassemia patient CD34+ cells", "assay_type": "cell-based, human", "details": "for reduction of free α-globin: rapamycin 10 μM or 20 μM added day 13, HPLC two days later", "experimental": "Cells were lysed in Hemolysate reagent (Helena Laboratories, Beaumont, Tex.) and centrifuged. Analysis of globin chains in the supernatant was performed by ion exchange (IE) and reverse phase (RP)-HPLC (Prominence UFLC, Shimadzu). Proteins eluting from the column were quantified by light absorbance at 220, 280, and 415 nm with a diode array detector. The relative amount of free α-globin was calculated from the area of the peak for each condition at 415 nm and normalized based on the DMSO control. The percentage was calculated as follows: % α-globin=[α-chain/ρ-chain (β+γ+δ)×100]."}, "[2]": {"test_system": "Hbb^Th3/+ reticulocytes", "test": "Reticulocyte pulse-chase analysis of insoluble α-globin turnover with inhibitors", "assay_type": "cell-based, mice", "details": "6 hours chase, 10 μM MG132, 100 μM chloroquine or 0.2 μM bafilomycin A1", "experimental": "Briefly, reticulocytes were pulse-labeled with ^35S-cysteine and ^35S-methionine for 30 minutes then chased with unlabeled amino acids±proteasome inhibitor (10 μM MG132) and/or lysosome inhibitor (100 μM chloroquine or 0.2 μM bafilomycin A1). Insoluble α-globin was isolated by TAU gel electrophoresis, analyzed by autoradiography, and quantified using AlphaView SA 3.4.0 (ProteinSimple).\nTo investigate how the depletion of ULK1 or ATG5 affects the turnover of insoluble α-globin in β-thalassemia, mutant reticulocytes were pulse-labeled with ^35S-labeled amino acids, chased for various times with unlabeled amino acids with or without various inhibitors, and the soluble and insoluble nascent radiolabeled α-globin in cell lysates was quantified."}, "[3]": {"test_system": "β-thalassemic erythroblasts", "test": "Cell survival of treated erythroblasts derived from β-thalassemia patient CD34+ cells", "details": "added day 13, 48 hours", "description": "Erythroid differentiation and maturation were monitored by flow cytometry with an LSR/Fortessa cell analyzer (BD Biosciences), using the following antibodies: anti-CD235a (BD Biosciences), anti-Band3, and anti-α4-integrin (Miltenyi)."}, "[4]": {"test_system": "β-thalassemic and control mice", "test": "Hematologic analysis of mice treated with rapamycin for 30 days", "assay_type": "in vivo", "experimental": "Mice were analyzed at 1-6 months of age. Blood was collected by submandibular bleeding, anticoagulated with EDTA, and analyzed on a FORCYTE Veterinary Hematology Analyzer.\n(§1) Tissue samples were submitted for pathology analysis."}, "[5]": {"test_system": "β-thalassemic and control mice", "test": "Pathology grading of erythropoiesis (bone marrow, spleen, liver) in rapamycin-treated mice", "assay_type": "in vivo", "details": "rapamycin 30 days; for Bone marrow erythropoiesis grade / Liver erythropoiesis grade / Spleen erythropoiesis grade: grade scale 0-5; for Final grade (sum of the grades of the three tissues): scale 0-15", "experimental": "Bright-field images of hematoxylin and eosin-stained tissues were acquired with a Nikon Eclipse Ni microscope. Morphologic phenotyping of all cohorts was carried out in a blinded manner by a board-certified veterinary pathologist. A semi-quantitative grading method was used to highlight visual differences in the erythropoiesis in each cohort. The bone marrow, spleen, and liver were first analyzed separately using the following grading scale: grade 0: within normal limits; grade 1: minimal; grade 2: mild; grade 3: moderate; grade 4: marked; grade 5: severe. A total grade for erythropoiesis (final grade) was calculated based on the sum of the grades for each of the three tissues. […] No mouse received a grade consistent with a severe increase in erythropoiesis.\nas §1"}, "[6]": {"test_system": "insoluble α-globin", "test": "Detection of insoluble α-globin precipitates (TAU gel) in erythroid cells of treated mice", "assay_type": "in vivo", "details": "FIG. 2", "experimental": "Briefly, 20 μL of washed RBCs (normalized based on the hematocrit percentage) were lysed and centrifuged at 16,000×g at 4° C. for 30 minutes. The pellets were washed extensively in ice-cold 0.05×PBS. Membrane lipids were extracted with 56 mM sodium borate, pH 8.0, containing 0.1% TWEEN-20, at 4° C. Precipitated globins were dissolved in 8M urea, 10% acetic acid, 10% β-mercaptoethanol, and 0.04% pyronin, fractionated by TRITON-acetic acid-urea (TAU) gel electrophoresis, and stained with COOMASSIE brilliant blue. Soluble hemoglobin fractions were analyzed and quantified as loading controls by using AlphaView SA 3.4.0 (ProteinSimple).\nas §1\n(§2) Insoluble α-globin in reticulocytes from rapamycin-treated Hbb^Th3/+ mice was decreased by approximately 50% (FIG. 2)."}, "[7]": {"test_system": "electron-dense α-globin inclusions in reticulocytes", "test": "Transmission electron microscopy of electron-dense aggregates in reticulocytes of treated mice", "assay_type": "in vivo", "details": "β-thalassemic mice treated with rapamycin vs vehicle-treated controls; P<0.0001", "experimental": "Samples were fixed in 2.5% glutaraldehyde in 0.1M sodium cacodylate buffer, pH 7.4, and embedded in 2% low-gelling-temperature agarose. The samples were post-fixed in 2% osmium tetroxide in 0.1M cacodylate buffer with 0.3% potassium ferrocyanide for 1.5 hours, dehydrated through a graded series of ethanol/propylene oxide solutions, then infiltrated with and embedded in epoxy resin, which was polymerized at 70° C. overnight. Semi-thin (0.5 μm) sections were stained with toluidine blue for light microscope examination. Ultra-thin (80 nm) sections were cut and imaged using an FEI Tecnai 200 Kv FEG Transmission Electron Microscope with an ATM XR41 digital camera.\nAreas of electron-dense α-globin inclusions in reticulocytes were quantified by automated image analysis of electron micrographs. TEM images were analyzed with the FIJI software program and the Trainable Weka Segmentation plugin to produce pixel-based segmentations in order to quantify differences in the numbers and areas of intracytoplasmic hemoglobin precipitates in thalassemic and non-thalassemic samples (Schindelin, et al. (2012) Nat. Meth. 9:676-682; Arganda-Carreras, et al. (2017) Bioinformatics 33:2424-2426).\nas §1, §2"}, "[8]": {"test_system": "Hbb^Th3/+ mice", "details": "systemic administration (Khandros 2012); cited from earlier work"}, "[9]": {"details": "Hbb^+/+ Ulk1^+/+ mice, rapamycin 4 mg/kg i.p. daily 30 days, mean ± SD"}, "[10]": {"details": "Hbb^Th3/+ Ulk1^+/+ mice, rapamycin 4 mg/kg i.p. daily 30 days, mean ± SD"}, "[11]": {"details": "Hbb^Th3/+ Ulk1^−/− mice, rapamycin 4 mg/kg i.p. daily 30 days, mean ± SD"}, "[12]": {"details": "β-thalassemic mice, rapamycin 4 mg/kg i.p. daily 30 days vs vehicle, P<0.001"}}, "note": "Residues, ends and D or L forms follow the SMILES beside them. *: point of attachment. Cbz = O=C(OCc1ccccc1)*", "data": [{"smiles": "CC(C)C[C@@H](C=O)NC(=O)[C@H](CC(C)C)NC(=O)[C@H](CC(C)C)NC(=O)OCc1ccccc1", "note": "[MG132] (Cbz-Leu-Leu-Leu-aldehyde)", "values": [{"measurement": "free α-globin levels", "setting": "[1]; β-thalassemic erythroblasts, MG132 1 μM or 2.5 μM added day 13, HPLC two days later", "result": "raised free α-globin levels"}, {"measurement": "sensitivity of clearance of labeled insoluble α-globin to the inhibitor", "setting": "[2]", "result": "sensitive"}, {"measurement": "effect on cell survival", "setting": "[3]", "result": "induced cell death"}]}, {"smiles": "CO[C@H]1C[C@@H]2CC[C@@H](C)[C@@](O)(O2)C(=O)C(=O)N2CCCC[C@H]2C(=O)O[C@H]([C@H](C)C[C@@H]2CC[C@@H](O)[C@H](OC)C2)CC(=O)[C@H](C)/C=C(\\C)[C@@H](O)[C@@H](OC)C(=O)[C@H](C)C[C@H](C)/C=C/C=C/C=C/1C", "note": "[rapamycin]", "values": [{"measurement": "Hb", "setting": "[4]; [9]", "result": "13.78 ± 1.99^ns g/dL"}, {"measurement": "Hct", "setting": "[4]; [9]", "result": "40.98 ± 5.75^ns %"}, {"measurement": "MCH", "setting": "[4]; [9]", "result": "14.53 ± 0.53^ns pg"}, {"measurement": "MCHC", "setting": "[4]; [9]", "result": "33.66 ± 0.76^ns g/dL"}, {"measurement": "MCV", "setting": "[4]; [9]", "result": "42.89 ± 1.61^ns fL"}, {"measurement": "RDW", "setting": "[4]; [9]", "result": "14.40 ± 0.91^ns %"}, {"measurement": "Reticulocytes", "setting": "[4]; [9]", "result": "2.90 ± 1.21^ns %"}, {"measurement": "Hb", "setting": "[4]; [10]", "result": "10.33 ± 1.07", "unit": "g/dL"}, {"measurement": "Hct", "setting": "[4]; [10]", "result": "29.42 ± 3.59", "unit": "%"}, {"measurement": "MCH", "setting": "[4]; [10]", "result": "11.56 ± 1.21", "unit": "pg"}, {"measurement": "MCHC", "setting": "[4]; [10]", "result": "35.54 ± 1.01", "unit": "g/dL"}, {"measurement": "MCV", "setting": "[4]; [10]", "result": "32.67 ± 3.02", "unit": "fL"}, {"measurement": "RDW", "setting": "[4]; [10]", "result": "31.05 ± 5.23", "unit": "%"}, {"measurement": "Reticulocytes", "setting": "[4]; [10]", "result": "13.06 ± 6.67", "unit": "%"}, {"measurement": "Hct", "setting": "[4]; [11]", "result": "25.42 ± 4.59^ns %"}, {"measurement": "MCH", "setting": "[4]; [11]", "result": "15.08 ± 1.31^ns pg"}, {"measurement": "MCHC", "setting": "[4]; [11]", "result": "34.99 ± 2.14^ns g/dL"}, {"measurement": "MCV", "setting": "[4]; [11]", "result": "43.03 ± 1.62", "unit": "fL"}, {"measurement": "RBC", "setting": "[4]; [11]", "result": "5.81 ± 0.99^ns ×10^6/μL"}, {"measurement": "RDW", "setting": "[4]; [11]", "result": "39.73 ± 0.66^ns %"}, {"measurement": "Reticulocytes", "setting": "[4]; [11]", "result": "34.35 ± 2.78^ns %"}, {"measurement": "effect on RBC indices or erythropoiesis", "setting": "[4]; wild-type or Hbb^Th3/+Ulk1^−/− mice", "result": "no effect"}, {"measurement": "decrease in reticulocyte count", "setting": "[4]; [12]", "result": 44, "unit": "%"}, {"measurement": "increase in RBC count", "setting": "[4]; [12]", "result": 27, "unit": "%"}, {"measurement": "increase in Hb", "setting": "[4]; β-thalassemic mice, rapamycin 4 mg/kg i.p. daily 30 days vs vehicle, P<0.05", "result": 10, "unit": "%"}, {"measurement": "Bone marrow erythropoiesis grade", "setting": "[5]; Hbb^+/+ Ulk1^+/+ mice", "result": "0.00 ± 0.00^ns"}, {"measurement": "Liver erythropoiesis grade", "setting": "[5]; Hbb^+/+ Ulk1^+/+ mice", "result": "0.44 ± 0.53^ns"}, {"measurement": "Spleen erythropoiesis grade", "setting": "[5]; Hbb^+/+ Ulk1^+/+ mice", "result": "0.00 ± 0.00^ns"}, {"measurement": "Final grade (sum of the grades of the three tissues)", "setting": "[5]; Hbb^+/+ Ulk1^+/+ mice", "result": "0.44 ± 0.53^ns"}, {"measurement": "Bone marrow erythropoiesis grade", "setting": "[5]; Hbb^Th3/+ Ulk1^+/+ mice", "result": "1.75 ± 1.67^ns"}, {"measurement": "Liver erythropoiesis grade", "setting": "[5]; Hbb^Th3/+ Ulk1^+/+ mice", "result": "0.87 ± 0.35^ns"}, {"measurement": "Spleen erythropoiesis grade", "setting": "[5]; Hbb^Th3/+ Ulk1^+/+ mice", "result": "2.37 ± 0.52"}, {"measurement": "Final grade (sum of the grades of the three tissues)", "setting": "[5]; Hbb^Th3/+ Ulk1^+/+ mice", "result": "5.00 ± 1.85"}, {"measurement": "Bone marrow erythropoiesis grade", "setting": "[5]; Hbb^Th3/+ Ulk1^−/− mice", "result": "3.30 ± 0.48^ns"}, {"measurement": "Liver erythropoiesis grade", "setting": "[5]; Hbb^Th3/+ Ulk1^−/− mice", "result": "1.10 ± 0.31"}, {"measurement": "Spleen erythropoiesis grade", "setting": "[5]; Hbb^Th3/+ Ulk1^−/− mice", "result": "3.20 ± 0.79^ns"}, {"measurement": "Final grade (sum of the grades of the three tissues)", "setting": "[5]; Hbb^Th3/+ Ulk1^−/− mice", "result": "7.60 ± 1.07^ns"}, {"measurement": "effect on the accumulation of insoluble α-globin", "setting": "[6]; Hbb^Th3/+Ulk1^−/− mice", "result": "no effect"}, {"measurement": "decrease of insoluble α-globin in reticulocytes", "setting": "[6]; rapamycin-treated Hbb^Th3/+ mice", "result": "approximately 50%"}, {"measurement": "reduction in electron-dense aggregates in reticulocytes (TEM)", "setting": "[7]", "result": "approximately 60%"}, {"measurement": "reduction of free α-globin", "setting": "[1]; NTD β-thalassemic erythroblasts, P<0.001", "result": 85, "unit": "%"}, {"measurement": "reduction of free α-globin", "setting": "[1]; TD β-thalassemia erythroblasts, P<0.0001", "result": 40, "unit": "%"}, {"measurement": "effect on cell survival", "setting": "[3]", "result": "no deleterious effect on cell survival"}]}, {"smiles": "CC(C)C[C@H](NC(=O)[C@H](Cc1ccccc1)NC(=O)c1cnccn1)B(O)O", "note": "[bortezomib]", "values": [{"measurement": "induction of autophagy and heat-shock proteins", "setting": "[8]", "result": "induced both autophagy and heat-shock proteins"}, {"measurement": "insoluble α-globin", "setting": "[8]", "result": "no net increase in insoluble α-globin"}]}, {"smiles": "CO/C1=C\\C(C)=C\\[C@@H](C)[C@@H](O)[C@@H](C)C/C(C)=C/C=C/[C@H](OC)[C@@H]([C@@H](C)[C@@H](O)[C@H](C)[C@@]2(O)C[C@@H](O)[C@H](C)[C@@H](C(C)C)O2)OC1=O", "note": "[bafilomycin A1]", "values": [{"measurement": "sensitivity of clearance of labeled insoluble α-globin to the inhibitor", "setting": "[2]", "result": "sensitive"}]}]}
